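Cells were grown in 96-well plates and exposed to each compound for 48 hours at five concentrations; endpoints were interpolated linearly between bracketing concentrations, or set to the highest concentration if not reached. GI50 is the concentration that inhibits growth by half.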 Active and inactive are the calls of the source. Rule as the data show it: active = GI50 up to about 1.1 µM and inactive = higher.
Columns and labels:
Test in all cases: NCI-60 cell line screen, 48 h
ACHN = system: ACHN
M14 = system: M14
HOP-92 = system: HOP-92
SW-620 = system: SW-620
IGROV-1 = system: IGROV-1
SNB-78 = system: SNB-78
COLO 205 = system: COLO 205
UACC-257 = system: UACC-257
SNB-19 = system: SNB-19
UO-31 = system: UO-31
OVCAR-8 = system: OVCAR-8
DMS-273 = system: DMS-273
HCT-15 = system: HCT-15
NCI-H460 = system: NCI-H460
SN12C = system: SN12C
SNB-75 = system: SNB-75
CCRF-CEM = system: CCRF-CEM
SK-OV-3 = system: SK-OV-3
EKVX = system: EKVX
SK-MEL-5 = system: SK-MEL-5
U-251 = system: U-251
HT-29 = system: HT-29
A549 = system: A549
K562 = system: K562
DMS-114 = system: DMS-114
HCC 2998 = system: HCC 2998
A498 = system: A498
HL-60 = system: HL-60
SF-539 = system: SF-539
RPMI-8226 = system: RPMI-8226
MOLT-4 = system: MOLT-4
HOP-18 = system: HOP-18
HCT-116 = system: HCT-116
SK-MEL-28 = system: SK-MEL-28
KM-20L2 = system: KM-20L2
OVCAR-4 = system: OVCAR-4
LXFL 529 = system: LXFL 529
TK-10 = system: TK-10
HOP-62 = system: HOP-62
OVCAR-5 = system: OVCAR-5
KM12 = system: KM12
Malme-3M = system: Malme-3M
SF-295 = system: SF-295
CAKI-1 = system: CAKI-1
NCI-H23 = system: NCI-H23
UACC-62 = system: UACC-62
NCI-H226 = system: NCI-H226
SF-268 = system: SF-268
DLD-1 = system: DLD-1
OVCAR-3 = system: OVCAR-3

Compound: Cc1cccc2ns[s+]c12
- GI50 (ACHN): > 100 µM (inactive)
- GI50 (M14): > 100 µM (inactive)
- GI50 (HOP-92): > 100 µM (inactive)
- GI50 (SW-620): 17.4 µM (inactive)
- GI50 (IGROV-1): > 100 µM (inactive)
- GI50 (SNB-78): > 100 µM (inactive)
- GI50 (COLO 205): > 100 µM (inactive)
- GI50 (UACC-257): > 100 µM (inactive)
- GI50 (SNB-19): 66.8 µM (inactive)
- GI50 (UO-31): 53 µM (inactive)
- GI50 (OVCAR-8): 47.1 µM (inactive)
- GI50 (DMS-273): 52.4 µM (inactive)
- GI50 (HCT-15): 19.4 µM
- GI50 (NCI-H460): 23 µM (inactive)
- GI50 (SN12C): > 100 µM (inactive)
- GI50 (SNB-75): 59 µM (inactive)
- GI50 (CCRF-CEM): 33.3 µM (inactive)
- GI50 (SK-OV-3): > 100 µM (inactive)
- GI50 (EKVX): > 100 µM (inactive)
- GI50 (SK-MEL-5): 89.7 µM (inactive)
- GI50 (U-251): 33.9 µM (inactive)
- GI50 (HT-29): 43.1 µM (inactive)
- GI50 (A549): > 100 µM (inactive)
- GI50 (K562): 29.9 µM (inactive)
- GI50 (DMS-114): 20.5 µM (inactive)
- GI50 (HCC 2998): > 100 µM (inactive)
- GI50 (A498): > 100 µM (inactive)
- GI50 (HL-60): 36.3 µM (inactive)
- GI50 (SF-539): 50.7 µM (inactive)
- GI50 (RPMI-8226): 99.5 µM (inactive)
- GI50 (MOLT-4): 38.5 µM (inactive)
- GI50 (HOP-18): > 100 µM (inactive)
- GI50 (HCT-116): 20 µM (inactive)
- GI50 (SK-MEL-28): > 100 µM (inactive)
- GI50 (KM-20L2): > 100 µM (inactive)
- GI50 (OVCAR-4): > 100 µM (inactive)
- GI50 (LXFL 529): 37.8 µM (inactive)
- GI50 (TK-10): > 100 µM (inactive)
- GI50 (HOP-62): > 100 µM (inactive)
- GI50 (OVCAR-5): > 100 µM (inactive)
- GI50 (KM12): > 100 µM (inactive)
- GI50 (Malme-3M): > 100 µM (inactive)
- GI50 (SF-295): > 100 µM (inactive)
- GI50 (CAKI-1): > 100 µM (inactive)
- GI50 (NCI-H23): > 100 µM (inactive)
- GI50 (UACC-62): 38.5 µM (inactive)
- GI50 (NCI-H226): > 100 µM (inactive)
- GI50 (SF-268): 82 µM (inactive)
- GI50 (DLD-1): > 100 µM (inactive)
- GI50 (OVCAR-3): > 100 µM (inactive)

Reference: ChEMBL document CHEMBL1201862, “PubChem BioAssay data set” (2004)
